From publication PMC4013589, “LXXLL Peptide Converts Transportan 10 to a Potent Inducer of Apoptosis in Breast Cancer Cells” (International Journal of Molecular Sciences, 2014)
Entries after “also recorded” stand apart in the source; their conditions may differ. Where no end group is shown, it is not given here.

Experiments:
[1] = tested on: MCF-7 breast cancer cells; experiment: WST-1 viability assay, MCF-7 cells; format: cell-based, human; conditions: WST-1, 5 μM peptide, treated every 24 h, day 3, 1% FBS without insulin; triplicate
Method: (§1) Figure 1. Effects of SRC-1 bioportides on cancer and primary fibroblast cells. (A) Viability of MCF-7 cells; (B) Viability of FB188 cells. Cells were seeded in 96-well plates at a density of 3000 or 2000 cells/well, respectively, and treated after every 24 h with the indicated peptide concentrations. Viability of both cell types was monitored at day 3 via the WST-1 assay. The values shown represent the mean values of one experiment, carried out in triplicate (mean ± SD). In total, three independent experiments were performed.
(§2) Cytotoxicity of peptides was measured via the WST-1 conversion assay (Roche, Mannheim, Germany). FB188 and MCF-7 cells were seeded in 96-well plates at a density of 2000 or 3000 cells/well, respectively, and allowed to adhere overnight. Subsequently the cells were pre-incubated for two days in medium containing 1% FBS without supplementary insulin and exposed to the indicated concentrations of the respective peptide for up to 3 days. WST-1 conversion was determined by colorimetric analysis at 450 nm. Briefly, WST-1 reagent (1/10 of sample volume) was added directly to the growth medium and incubated at 37 °C for 4 h. The absorbance was determined using a microplate reader (Molecular Devices, Sunnyvale, CA, USA) at 450 nm. Untreated cells were designated a cell survival value of 100%.

[2] = tested on: human primary fibroblasts (FB188 cells); experiment: WST-1 viability assay, primary fibroblasts (FB188); format: cell-based
Method: as §1, §2

[3] = tested on: HeLa cervical cancer cells; experiment: Toxicity to HeLa cells; format: cell-based, human; conditions: for Toxicity to HeLa cells: data not shown, concentration not given
[4] = tested on: MCF-7 cells; format: cell-based, human; conditions: for Effect on survival of MCF-7 cells: propidium iodide viability assay, 5 μM every 24 h for 4 days, 1% FBS without insulin
Method: (§3) Figure 3. Inhibition of cell viability by SRC-1 bioportides and their influence on ERα-mediated gene transactivation. (A) MCF-7 cells; (B) MDA-MB-231 cells. Cells were seeded in 24-well plates at low density and were treated every 24 h for 4 days with 5 μM peptide. Cell proliferation was measured after 1, 3, and 4 days of peptide treatment via a propidium iodide viability assay. […] MCF-7 cells were cultured with 5 μM of the indicated peptides and analyzed on day 2 of treatment. The fold change is the value compared with untreated cells. The values shown represent the mean values of one representative experiment, carried out in triplicate (mean ± SD). In total, three independent experiments were performed.
(§4) Cells were plated at low density in 24-well plates in standard growth medium, as described above. Before peptide treatment, MCF-7 cell growth was impeded by growing cells in 1% FBS containing medium without addition of insulin. At the day of treatment, peptides were added to the growth medium containing 1% FBS to the indicated final concentration. The procedure was repeated every 24 h for 4 days; samples were drawn after 1, 3, and 4 days of treatment and analyzed by cell counting using the propidium iodide viability assay (Nucleocounter, ChemoMetec, Allerød, Denmark) according to manufacturer’s instructions.

[5] = tested on: MDA-MB-231 cells; format: cell-based, human; conditions: for Effect on survival of MDA-MB-231 cells: propidium iodide viability assay, 5 μM every 24 h for 4 days, 1% FBS
Method: as §3, §4

[6] = tested on: pS2 mRNA in MCF-7 cells; experiment: Quantitative RT-PCR of ERα target gene pS2, MCF-7; format: cell-based, human; conditions: MCF-7, 5 μM peptide, day 2, qRT-PCR relative to GAPDH, versus untreated cells
Method: as §3
(§5) For quantitative RT-PCR (qPCR) analysis, MCF-7 cells were treated as described above for the proliferation assay. On day 2, cells were lysed and total RNA was extracted using a commercial RNAqueous Kit (Ambion, Austin, TX, USA). Genomic DNA was removed with DNase I treatment (Ambion) according to the supplier’s protocol. RNA was reverse-transcribed using SuperScript III Reverse Transcriptase (Invitrogen, Carlsbad, CA, USA). Subsequently, qPCR was performed using Platinum SYBR Green (Invitrogen) according to the manufacturer’s protocol. […]

[7] = tested on: CTSD mRNA in MCF-7 cells; experiment: Quantitative RT-PCR of ERα target gene CTSD, MCF-7; format: cell-based, human; conditions: MCF-7, 5 μM peptide, day 2, qRT-PCR; similar to TP10 or TP10-SRC1_1222–1245 treated cells
Method: as §3, §5

[8] = tested on: BCL2 mRNA in MCF-7 cells; experiment: Quantitative RT-PCR of ERα target gene BCL2, MCF-7; format: cell-based, human; conditions: MCF-7, 5 μM peptide, day 2, qRT-PCR; similar to TP10 or TP10-SRC1_1222–1245 treated cells
Method: as §3, §5

[9] = tested on: MCF-7 cells; experiment: Annexin V / 7-AAD flow cytometric detection of apoptosis; format: cell-based, human; conditions: MCF-7, 5 μM peptide, 24 h, 1% FBS without insulin, flow cytometry
Method: Figure 4. Flow cytometric detection of apoptosis by annexin V and 7-amino-actinomycin D (7-AAD) staining. (A) Representative dot plots of 7-AAD versus annexin-V-PE. MCF-7 cells were left untreated (control) or were treated with 5 μM of peptide for 24 h in media supplemented with 1% serum. The lower left quadrant contains the vital (double negative) population; the lower right contains the apoptotic (annexin V^+/7-AAD^−) population; the upper right contains the late apoptotic/necrotic (annexin V^+/7-AAD^+) population; and the upper left contains the pre-necrotic (annexin V^−/7-AAD^+) population; (B) Average percentage of apoptotic and late apoptotic/necrotic cells counted from dot plots taken from one representative experiment, error bars indicate mean ± SD. Data are statistically significant with * p < 0.05, ** p < 0.01. In total, three independent experiments were performed.
Annexin V staining was measured using the PE-annexin-V Apoptosis Detection Kit I (BD Biosciences, San Diego, CA, USA). MCF-7 cells (3 × 10^5) were treated for 24 h with 5 μM peptide in growth medium supplemented with 1% FBS and without insulin. […] Following the addition of 0.4 mL of 1× Binding Buffer, fluorescence of annexin V and 7-AAD was detected in the FL-2 and FL-3 channels, respectively, within 1 h using a FACS Calibur flowcytometer (BD Biosciences, Sparks, MD, USA). […]

| Substance | Effect on viability of MCF-7 cells [1] | Toxicity to HeLa cells [3] | Effect on survival of MCF-7 cells [4] | Effect on survival of MDA-MB-231 cells [5] | pS2 mRNA levels [6] | also measured |
| --- | --- | --- | --- | --- | --- | --- |
| NLS-RRRRRRR [R7, hepta-arginine cell-penetrating peptide with SV40 NLS, control, reference compound] | did not have any effect |  |  |  |  | Effect on viability of human primary fibroblasts ([2]; WST-1, 5 μM peptide, treated every 24 h, day 3, 1% FBS, triplicate): did not have any effect |
| NLS-RRRRRRR-PQMQQNVFQYPGAGMVPQGEANF [R7-SRC1_1222–1245, randomly chosen non-structured fragment of SRC-1 with N-terminal R7; negative control] |  | not toxic | did not affect survival | did not affect survival |  |  |
| NLS-RRRRRRR-YSQTSHKLVQLLTTAEQQ [R7-SRC1LXXLL] |  | not toxic | did not affect survival | did not affect survival |  |  |
| PKKKRKVAGYLLGKINLKALAALAKKILYSQTSHKLVQLLTTAEQQ [TP10-SRC1LXXLL] | significantly more toxic; also recorded: highly cytotoxic |  | significant cytotoxic effects |  | No down-regulation | Concentration affecting the viability of primary fibroblasts ([2]; WST-1, day 3): ≥ 4 µM; Cytotoxicity to HeLa cells ([3]; 5 μM): highly cytotoxic; Cells killed ([4]; MCF-7, 5 μM every 24 h, day 3, propidium iodide assay): 50%; Number of viable cells ([4]; MCF-7, 5 μM every 24 h, day 4, propidium iodide assay): less than 1%; Cells killed ([5]; MDA-MB-231, 5 μM every 24 h, day 3, propidium iodide assay): 99%; Number of viable cells ([5]; MDA-MB-231, 5 μM every 24 h, day 4, propidium iodide assay): less than 1%; CTSD mRNA expression [7]: slightly elevated; BCL2 mRNA expression [8]: slightly elevated; Annexin V and 7-AAD double-stained (late apoptotic/necrotic) cells [9]: smaller population of cells that stained for both 7-AAD and annexin V; Annexin V (+)/7-AAD (−) stained (early apoptotic) cells ([9]; compared with untreated cells): predominant population of annexin V positive and 7-AAD negative cells |
| TP10 [reference compound] | did not have any effect |  |  |  | No down-regulation |  |
